Data set [1] is described as follows: Bioavailability of compound [1] taken orally before or after a meal. It counts as in vivo.
Data set [2] concerns blood sugar level. Particulars: taken orally; cited from earlier work.

Regarding `CC(C)[C@H]1CC[C@H](C(=O)N[C@H](Cc2ccccc2)C(=O)O)CC1` [compound [1], N-(trans-4-isopropylcyclohexanecarbonyl)-D-phenylalanine], the bioavailability entry in data set [1] was “lowered”. In addition, the “effect of lowering the blood sugar level” value in data set [2] is “excellent effect of lowering the blood sugar level”.

Source of the values: patent US6641841B2, “Tablet composition” (Ajinomoto Co., Inc., priority 1996, dated 2003).
